From patent publication US10986838B2, “Herbicides” (SYNGENTA PARTICIPATIONS AG, priority 2016, dated 2021)

Key:
Assay type in all cases: in vivo
[1] = tested on: Echinochloa crus-galli (ECHCG); assay: Pre-emergence herbicidal activity (B1); details: Test 1a, 1000 g/ha, evaluated after 13 days, 5=total damage to plant, 0=no damage to plant
Experimental: (§1) B1 Pre-Emergence Herbicidal Activity Seeds of a variety of test species were sown in standard soil in pots: Triticum aestivium (TRZAW), Avena fatua (AVEFA), Alopecurus myosuroides (ALOMY), Echinochloa crus-galli (ECHCG), Lolium perenne (LOLPE), Zea Mays (ZEAMX), Abutilon theophrasti (ABUTH), Amaranthus retroflexus (AMARE) and Setaria faberi (SETFA). After cultivation for one day (pre-emergence) under controlled conditions in a glasshouse (at 24/16° C., day/night; 14 hours light; 65% humidity), the plants were sprayed with an aqueous spray solution derived from the formulation of the technical active ingredient in acetone/water (50:50) solution containing 0.5% Tween 20 (polyoxyethelyene sorbitan monolaurate, CAS RN 9005-64-5). The test plants were then grown in a glasshouse under controlled conditions (at 24/16° C., day/night; 14 hours light; 65% humidity) and watered twice daily. After 13 days, the test was evaluated (5=total damage to plant; 0=no damage to plant). Tables B1a and B1b Control of Weed Species by Compound of Formula (I) after Pre-Emergence Application

Lolium perenne (LOLPE) [2] = assay: Pre-emergence herbicidal activity (B1); details: Test 1a, 1000 g/ha, evaluated after 13 days, 5=total damage to plant, 0=no damage to plant
Experimental: as §1

[3] = tested on: Alopecurus myosuroides (ALOMY); assay: Pre-emergence herbicidal activity (B1); details: Test 1a, 1000 g/ha, evaluated after 13 days, 5=total damage to plant, 0=no damage to plant
Experimental: as §1

[4] = tested on: Triticum aestivium (TRZAW); assay: Pre-emergence herbicidal activity (B1); details: Test 1a, 1000 g/ha, evaluated after 13 days, 5=total damage to plant, 0=no damage to plant
Experimental: as §1

Avena fatua (AVEFA) [5] = assay: Pre-emergence herbicidal activity (B1); details: Test 1a, 1000 g/ha, evaluated after 13 days, 5=total damage to plant, 0=no damage to plant
Experimental: as §1

Setaria faberi (SETFA) [6] = assay: Pre-emergence herbicidal activity (B1); details: Test 1a, 1000 g/ha, evaluated after 13 days, 5=total damage to plant, 0=no damage to plant
Experimental: as §1

[7] = tested on: Echinochloa crus-galli (ECHCG); assay: Post-emergence herbicidal activity (B2); details: Test B2a, 1000 g/ha, evaluated after 13 days, 5=total damage to plant, 0=no damage to plant
Experimental: (§2) B2 Post-Emergence Herbicidal Activity Seeds of a variety of test species were sown in standard soil in pots: Triticum aestivium (TRZAW), Avena fatua (AVEFA), Alopecurus myosuroides (ALOMY), Echinochloa crus-galli (ECHCG), Lolium perenne (LOLPE), Zea Mays (ZEAMX), Abutilon theophrasti (ABUTH), Amaranthus retroflexus (AMARE) and Setaria faberi (SETFA). After 8 days cultivation (post-emergence) under controlled conditions in a glasshouse (at 24/16° C., day/night; 14 hours light; 65% humidity), the plants were sprayed with an aqueous spray solution derived from the formulation of the technical active ingredient in acetone/water (50:50) solution containing 0.5% Tween 20 (polyoxyethelyene sorbitan monolaurate, CAS RN 9005-64-5). The test plants were then grown in a glasshouse under controlled conditions (at 24/16° C., day/night; 14 hours light; 65% humidity) and watered twice daily. After 13 days, the test was evaluated (5=total damage to plant; 0=no damage to plant). Tables B2a and B2b Control of Weed Species by Compound of Formula (I) after Post-Emergence Application

Lolium perenne (LOLPE) [8] = assay: Post-emergence herbicidal activity (B2); details: Test B2a, 1000 g/ha, evaluated after 13 days, 5=total damage to plant, 0=no damage to plant
Experimental: as §2

[9] = tested on: Alopecurus myosuroides (ALOMY); assay: Post-emergence herbicidal activity (B2); details: Test B2a, 1000 g/ha, evaluated after 13 days, 5=total damage to plant, 0=no damage to plant
Experimental: as §2

[10] = tested on: Triticum aestivium (TRZAW); assay: Post-emergence herbicidal activity (B2); details: Test B2a, 1000 g/ha, evaluated after 13 days, 5=total damage to plant, 0=no damage to plant
Experimental: as §2

Avena fatua (AVEFA) [11] = assay: Post-emergence herbicidal activity (B2); details: Test B2a, 1000 g/ha, evaluated after 13 days, 5=total damage to plant, 0=no damage to plant
Experimental: as §2

Setaria faberi (SETFA) [12] = assay: Post-emergence herbicidal activity (B2); details: Test B2a, 1000 g/ha, evaluated after 13 days, 5=total damage to plant, 0=no damage to plant
Experimental: as §2

Structure (SMILES) | ECHCG damage score [1] | LOLPE damage score (Lolium perenne (LOLPE) [2]) | ALOMY damage score [3] | TRAZW damage score [4] | AVEFA damage score (Avena fatua (AVEFA) [5]) | SETFA damage score (Setaria faberi (SETFA) [6]) | ECHCG damage score [7] | LOLPE damage score (Lolium perenne (LOLPE) [8]) | ALOMY damage score [9] | TRAZW damage score [10] | AVEFA damage score (Avena fatua (AVEFA) [11]) | SETFA damage score (Setaria faberi (SETFA) [12])
Fc1cncc(-c2ccc(N3CCCC3C(F)(F)F)c(C(F)(F)F)n2)c1 (stereo not drawn) [Compound A64] | 1 | 0 | 0 | 0 | 0 | 1 | 2 | 0 | 0 | 0 | 1 | 4
Fc1cncc(-c2ccc(NCC3CCCCC3)c(C(F)(F)F)n2)c1 [Compound A52] | 3 | 1 | 0 | 0 | 1 | 5 | 3 | 3 | 0 | 0 | 3 | 5
N#Cc1cncc(-c2ccc(N)c(C(F)(F)F)n2)c1 [Compound A2] | 2 | 1 | 0 | 0 | 0 | 4 | 4 | 2 | 1 | 0 | 3 | 5
Fc1cncc(-c2ccc(N3CC(F)(F)C(F)(F)C3)c(C(F)(F)F)n2)c1 [Compound A62] | 3 | 0 | 0 | 0 | 1 | 5 | 3 | 2 | 0 | 0 | 3 | 5
Fc1cncc(-c2ccc(NCc3cc4ccccn4n3)c(C(F)(F)F)n2)c1 [Compound A55] | 5 | 1 | 0 | 0 | 2 | 5 | 5 | 3 | 1 | 2 | 4 | 5
CC(C)CCNc1ccc(-c2cncc(F)c2)nc1C(F)(F)F [Compound A53] | 4 | 2 | 1 | 1 | 1 | 5 | 5 | 3 | 1 | 1 | 3 | 5
CN1CCN(c2ccc(-c3cncc(F)c3)nc2C(F)(F)F)CC1 [Compound A61] | 4 | 0 | 0 | 0 | 2 | 5 | 5 | 2 | 1 | 1 | 3 | 5
